Assay results as given in patent US20260053812A1, “METHODS OF TREATING HYPERTENSION WITH A COMBINATION OF AN ALDOSTERONE SYNTHASE INHIBITOR AND A DIURETIC” (Mineralys Therapeutics, Inc., priority 2022, published 2026).

Test: Adverse events (TEAEs, SAEs, AESI; Safety Analysis Set)
Description: In analyses performed on the Safety Analysis Set, subjects will be analyzed according to their actual treatment received.

Q: For `CC(=O)N[C@H]1CC[C@H](NC(=O)CN2CCN(c3nncc(-c4ccc(C)cc4)n3)CC2)CC1` [Compound A HBr], which “AE requiring dose titration: Hyperkalemia” value (100 mg QD Pooled, N 60) is on record?
A: The value was 2 (3.3%).

Q: What about the “AE requiring dose titration: Hyponatremia” value (100 mg QD Pooled, N 60) of the same molecule?
A: The value was 1 (1.7%).

Q: What about the “AE requiring dose titration: Other possibly related” value (100 mg QD Pooled, N 60) of the same molecule?
A: Its value is 0.

Q: And the “AE requiring dose titration: Other unrelated” value (100 mg QD Pooled, N 60)?
A: Its value is 0.

Q: What about the “AE requiring study drug discontinuation: Hyperkalemia” value (100 mg QD Pooled, N 60) of the same molecule?
A: Its value is 2 (3.3%).

Q: What about the “AE requiring study drug discontinuation: Hyponatremia” value (100 mg QD Pooled, N 60) of the same molecule?
A: Its value is 1 (1.7%).

Q: And the “AE requiring study drug discontinuation: Hypotension” value (100 mg QD Pooled, N 60)?
A: Its value is 2 (3.3%).

Q: And the “AE requiring study drug discontinuation: Other possibly related” value (100 mg QD Pooled, N 60)?
A: The value was 1 (1.7%).

Q: What about the “AE requiring study drug discontinuation: Other unrelated” value (100 mg QD Pooled, N 60) of the same molecule?
A: The value was 4 (6.7%).

Q: What about the “Serious adverse events (SAEs) related to the study medication” value (Example 1 analysis, whole trial) of the same molecule?
A: The value was “No serious adverse events”.

Q: And the “Subjects with TEAE resulting in dose modification” value (Part 1)?
A: The value was 24 subjects.

Q: What about the “AE requiring dose titration: Hyperkalemia” value (Part 1 100 mg QD, N 29) of the same molecule?
A: Its value is 1 (3.4%).

Q: What about the “AE requiring dose titration: Hyponatremia” value (Part 1 100 mg QD, N 29) of the same molecule?
A: The value was 0.

Q: What about the “AE requiring dose titration: Other possibly related” value (Part 1 100 mg QD, N 29) of the same molecule?
A: The value was 0.

Q: And the “AE requiring dose titration: Other unrelated” value (Part 1 100 mg QD, N 29)?
A: The value was 0.

Q: And the “AE requiring study drug discontinuation: Hyperkalemia” value (Part 1 100 mg QD, N 29)?
A: The value was 2 (6.9%).

Q: What about the “AE requiring study drug discontinuation: Hyponatremia” value (Part 1 100 mg QD, N 29) of the same molecule?
A: Its value is 0.

Q: What about the “AE requiring study drug discontinuation: Hypotension” value (Part 1 100 mg QD, N 29) of the same molecule?
A: Its value is 1 (3.4%).

Q: What about the “AE requiring study drug discontinuation: Other possibly related” value (Part 1 100 mg QD, N 29) of the same molecule?
A: Its value is 1 (3.4%).

Q: What about the “AE requiring study drug discontinuation: Other unrelated” value (Part 1 100 mg QD, N 29) of the same molecule?
A: Its value is 3 (6.0%).

Q: And the “On-treatment TEAE, Cardiac disorders, %” value (Part 1, 12.5 mg BID (N = 22))?
A: The value was “(4.5) %”.

Q: What about the “On-treatment TEAE, Cortisol decreased, %” value (Part 1, 12.5 mg BID (N = 22)) of the same molecule?
A: The value was “(9.1) %”.

Q: What about the “On-treatment TEAE, Cortisol decreased, Mild, %” value (Part 1, 12.5 mg BID (N = 22)) of the same molecule?
A: Its value is “(9.1) %”.

Q: And the “On-treatment TEAE, General disorders and administration site conditions, %” value (Part 1, 12.5 mg BID (N = 22))?
A: The value was “(9.1) %”.

Q: And the “On-treatment TEAE, General disorders and administration site conditions, Mild, %” value (Part 1, 12.5 mg BID (N = 22))?
A: Its value is “(4.5) %”.

Q: What about the “On-treatment TEAE, Glomerular filtration rate decreased, %” value (Part 1, 12.5 mg BID (N = 22)) of the same molecule?
A: Its value is “(13.6) %”.

Q: What about the “On-treatment TEAE, Glomerular filtration rate decreased, Mild, %” value (Part 1, 12.5 mg BID (N = 22)) of the same molecule?
A: Its value is “(13.6) %”.

Q: What about the “On-treatment TEAE, Hyperkalaemia, %” value (Part 1, 12.5 mg BID (N = 22)) of the same molecule?
A: The value was “(22.7) %”.

Q: And the “On-treatment TEAE, Hyperkalaemia, Mild, %” value (Part 1, 12.5 mg BID (N = 22))?
A: The value was “(18.2) %”.

Q: What about the “On-treatment TEAE, Hyperkalaemia, Moderate, %” value (Part 1, 12.5 mg BID (N = 22)) of the same molecule?
A: Its value is “(4.5) %”.

Q: And the “On-treatment TEAE, Infections and infestations, %” value (Part 1, 12.5 mg BID (N = 22))?
A: The value was “(4.5) %”.

Q: And the “On-treatment TEAE, Infections and infestations, Moderate, %” value (Part 1, 12.5 mg BID (N = 22))?
A: Its value is “(4.5) %”.

Q: And the “On-treatment TEAE, Investigations, %” value (Part 1, 12.5 mg BID (N = 22))?
A: Its value is “(27.3) %”.

Q: What about the “On-treatment TEAE, Investigations, Mild, %” value (Part 1, 12.5 mg BID (N = 22)) of the same molecule?
A: The value was “(22.7) %”.

Q: And the “On-treatment TEAE, Investigations, Moderate, %” value (Part 1, 12.5 mg BID (N = 22))?
A: Its value is “(4.5) %”.

Q: And the “On-treatment TEAE, Metabolism and nutrition disorders, %” value (Part 1, 12.5 mg BID (N = 22))?
A: The value was “(22.7) %”.

Q: What about the “On-treatment TEAE, Metabolism and nutrition disorders, Mild, %” value (Part 1, 12.5 mg BID (N = 22)) of the same molecule?
A: The value was “(18.2) %”.

Q: What about the “On-treatment TEAE, Metabolism and nutrition disorders, Moderate, %” value (Part 1, 12.5 mg BID (N = 22)) of the same molecule?
A: The value was “(4.5) %”.

Q: And the “On-treatment TEAE, Nervous system disorders, %” value (Part 1, 12.5 mg BID (N = 22))?
A: Its value is “(4.5) %”.

Q: And the “On-treatment TEAE, Nervous system disorders, Mild, %” value (Part 1, 12.5 mg BID (N = 22))?
A: The value was “(4.5) %”.

Q: What about the “On-treatment TEAE, Orthostatic hypotension, %” value (Part 1, 12.5 mg BID (N = 22)) of the same molecule?
A: Its value is “(4.5) %”.

Q: What about the “On-treatment TEAE, Orthostatic hypotension, Mild, %” value (Part 1, 12.5 mg BID (N = 22)) of the same molecule?
A: Its value is “(4.5) %”.

Q: And the “On-treatment TEAE, Psychiatric disorders, %” value (Part 1, 12.5 mg BID (N = 22))?
A: Its value is “(4.5) %”.

Q: What about the “On-treatment TEAE, Psychiatric disorders, Moderate, %” value (Part 1, 12.5 mg BID (N = 22)) of the same molecule?
A: The value was “(4.5) %”.

Q: And the “On-treatment TEAE, Vascular disorders, %” value (Part 1, 12.5 mg BID (N = 22))?
A: Its value is “(9.1) %”.

Q: What about the “On-treatment TEAE, Vascular disorders, Mild, %” value (Part 1, 12.5 mg BID (N = 22)) of the same molecule?
A: The value was “(9.1) %”.

Q: What about the “Subjects with any On-treatment TEAEs leading to withdrawal from study drug, %” value (Part 1, 12.5 mg BID (N = 22)) of the same molecule?
A: Its value is 4.5%.

Q: What about the “Subjects with any On-treatment TEAEs, Mild, %” value (Part 1, 12.5 mg BID (N = 22)) of the same molecule?
A: Its value is “(36.4) %”.

Q: And the “Subjects with any On-treatment TEAEs, Moderate, %” value (Part 1, 12.5 mg BID (N = 22))?
A: Its value is “(22.7) %”.

Q: And the “TEAE leading to permanent discontinuation from study drug, Orthostatic hypotension, %” value (Part 1, 12.5 mg BID (N = 22))?
A: The value was 4.5%.

Q: What about the “TEAE leading to permanent discontinuation from study drug, Vascular disorders, %” value (Part 1, 12.5 mg BID (N = 22)) of the same molecule?
A: The value was 4.5%.

Q: What about the “On-treatment TEAE, Cardiac disorders, %” value (Part 1, 12.5 mg QD (N = 23)) of the same molecule?
A: Its value is “(8.7) %”.

Q: What about the “On-treatment TEAE, Dizziness, %” value (Part 1, 12.5 mg QD (N = 23)) of the same molecule?
A: Its value is “(4.3) %”.

Q: And the “On-treatment TEAE, Gastrointestinal disorders, %” value (Part 1, 12.5 mg QD (N = 23))?
A: Its value is “(8.7) %”.

Q: And the “On-treatment TEAE, Gastrointestinal disorders, Mild, %” value (Part 1, 12.5 mg QD (N = 23))?
A: Its value is “(4.3) %”.

Q: What about the “On-treatment TEAE, General disorders and administration site conditions, %” value (Part 1, 12.5 mg QD (N = 23)) of the same molecule?
A: Its value is “(4.3) %”.

Q: What about the “On-treatment TEAE, Glomerular filtration rate decreased, %” value (Part 1, 12.5 mg QD (N = 23)) of the same molecule?
A: The value was “(4.3) %”.

Q: What about the “On-treatment TEAE, Glomerular filtration rate decreased, Mild, %” value (Part 1, 12.5 mg QD (N = 23)) of the same molecule?
A: Its value is “(4.3) %”.

Q: What about the “On-treatment TEAE, Hyperkalaemia, %” value (Part 1, 12.5 mg QD (N = 23)) of the same molecule?
A: Its value is “(26.1) %”.

Q: What about the “On-treatment TEAE, Hyperkalaemia, Mild, %” value (Part 1, 12.5 mg QD (N = 23)) of the same molecule?
A: The value was “(17.4) %”.

Q: And the “On-treatment TEAE, Hyperkalaemia, Moderate, %” value (Part 1, 12.5 mg QD (N = 23))?
A: The value was “(4.3) %”.

Q: What about the “On-treatment TEAE, Hyperkalaemia, Severe, %” value (Part 1, 12.5 mg QD (N = 23)) of the same molecule?
A: Its value is “(4.3) %”.

Q: And the “On-treatment TEAE, Hypertension, %” value (Part 1, 12.5 mg QD (N = 23))?
A: The value was “(8.7) %”.

Q: And the “On-treatment TEAE, Hypertension, Moderate, %” value (Part 1, 12.5 mg QD (N = 23))?
A: The value was “(4.3) %”.

Q: And the “On-treatment TEAE, Infections and infestations, %” value (Part 1, 12.5 mg QD (N = 23))?
A: Its value is “(13.0) %”.

Q: What about the “On-treatment TEAE, Infections and infestations, Mild, %” value (Part 1, 12.5 mg QD (N = 23)) of the same molecule?
A: Its value is “(13.0) %”.

Q: And the “On-treatment TEAE, Investigations, %” value (Part 1, 12.5 mg QD (N = 23))?
A: Its value is “(13.0) %”.

Q: And the “On-treatment TEAE, Investigations, Mild, %” value (Part 1, 12.5 mg QD (N = 23))?
A: The value was “(13.0) %”.

Q: And the “On-treatment TEAE, Metabolism and nutrition disorders, %” value (Part 1, 12.5 mg QD (N = 23))?
A: The value was “(26.1) %”.

Q: And the “On-treatment TEAE, Metabolism and nutrition disorders, Mild, %” value (Part 1, 12.5 mg QD (N = 23))?
A: Its value is “(17.4) %”.

Q: What about the “On-treatment TEAE, Metabolism and nutrition disorders, Moderate, %” value (Part 1, 12.5 mg QD (N = 23)) of the same molecule?
A: Its value is “(4.3) %”.

Q: And the “On-treatment TEAE, Nervous system disorders, %” value (Part 1, 12.5 mg QD (N = 23))?
A: The value was “(8.7) %”.

Q: What about the “On-treatment TEAE, Nervous system disorders, Mild, %” value (Part 1, 12.5 mg QD (N = 23)) of the same molecule?
A: The value was “(8.7) %”.

Q: What about the “On-treatment TEAE, Orthostatic hypotension, %” value (Part 1, 12.5 mg QD (N = 23)) of the same molecule?
A: Its value is “(8.7) %”.

Q: And the “On-treatment TEAE, Orthostatic hypotension, Mild, %” value (Part 1, 12.5 mg QD (N = 23))?
A: Its value is “(8.7) %”.

Q: What about the “On-treatment TEAE, Urinary tract infection, %” value (Part 1, 12.5 mg QD (N = 23)) of the same molecule?
A: Its value is “(4.3) %”.

Q: What about the “On-treatment TEAE, Urinary tract infection, Mild, %” value (Part 1, 12.5 mg QD (N = 23)) of the same molecule?
A: The value was “(4.3) %”.

Q: And the “On-treatment TEAE, Vascular disorders, %” value (Part 1, 12.5 mg QD (N = 23))?
A: The value was “(13.0) %”.
